These results are taken from patent publication US9474790B2, “Stable, protracted GLP-1/glucagon receptor co-agonists for medical use” (Novo Nordisk A/S, priority 2013, dated 2016).

One experiment concerns the target T1, human glucagon receptor (Homo sapiens, UniProt P47871).
T1 construct: expressed in transfected cells; host or cells: BHK cells (parent BHK570, CRE luciferase clone BHK/KZ10-20-48), clone pLJ6'-4-25
The experiment is described as follows: Glucagon receptor potency, CRE luciferase reporter gene assay in BHK cells. The class given is cell-based. The note with it: BHK cells expressing human glucagon receptor, read-out: EC50 GlucR. In short, it runs like this:
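Stably transfected BHK cells (BHK570 background) expressing human glucagon receptor with CRE-firefly luciferase reporter, 5×10EE3 cells/well in DMEM/HEPES with 2% ovalbumin and 0.2% Pluronic F-68. Compounds 1×10EE-13 to 1×10EE-6 M final, 3 h at 37 °C; luminescence read, EC50 from four-parameter fit, in pM.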
(In a reporter assay the amount or activity of a reporter protein is the signal.)

The target of another experiment is T2, human GLP-1 receptor (Homo sapiens, UniProt P43220).
T2 construct: expressed in transfected cells; host or cells: BHK cells (parent BHKTS13), clone FCW467-12A/KZ10-1, with CRE luciferase
Put plainly: GLP-1 receptor potency, CRE luciferase reporter gene assay in BHK cells. The class given is cell-based. Particulars: BHK cells expressing human GLP-1 receptor, read-out: EC50 GLP-1R. An outline of the steps: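 BHK cells stably expressing human GLP-1 receptor with CRE-luciferase reporter, 5×10EE3 cells/well in phenol red-free DMEM with 10 mM Hepes, 2% ovalbumin, 0.2% Pluronic F-68. Compounds at final 1×10EE-6 to 1×10EE-13 M, 3 h at 37° C; steadylite luminescence; EC50 by four-parameter fit, in pM.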

A word on the EC50: it is the concentration needed to bring the measured effect to its halfway point.

The structures appear in SMILES notation. Numbered stars: 1 amine (or outer) side, 2 acyl side, 3 side chain; on linkers, the order of the positions; unused ones are H or OH. Square brackets hold non-standard residues; d marks the D form. Side chains are listed from the residue outwards. Peptide text beside a SMILES is read from it. * marks the point of attachment. C18 diacid = O=C(O)CCCCCCCCCCCCCCCCC(=O)*; γGlu = O=C(O)[C@H](CCC(=O)[*:2])N[*:1]; Ac4c = NC1(C(=O)O)CCC1; AEEA = NCCOCCOCC(=O)O; Aib = CC(C)(N)C(=O)O

T2 sequence (P43220 24-463): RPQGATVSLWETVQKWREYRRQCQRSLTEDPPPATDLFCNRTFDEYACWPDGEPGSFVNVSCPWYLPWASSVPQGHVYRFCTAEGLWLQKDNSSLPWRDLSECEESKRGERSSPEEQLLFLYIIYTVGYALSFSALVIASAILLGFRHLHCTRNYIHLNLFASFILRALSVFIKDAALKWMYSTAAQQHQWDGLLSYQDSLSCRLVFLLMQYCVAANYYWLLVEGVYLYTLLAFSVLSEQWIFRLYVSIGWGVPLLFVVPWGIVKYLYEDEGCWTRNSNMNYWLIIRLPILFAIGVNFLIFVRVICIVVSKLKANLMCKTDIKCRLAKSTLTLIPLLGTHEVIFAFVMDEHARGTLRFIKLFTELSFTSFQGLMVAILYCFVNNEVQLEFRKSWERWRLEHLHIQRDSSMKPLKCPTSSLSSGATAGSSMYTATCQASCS
T1 sequence (P47871 26-477): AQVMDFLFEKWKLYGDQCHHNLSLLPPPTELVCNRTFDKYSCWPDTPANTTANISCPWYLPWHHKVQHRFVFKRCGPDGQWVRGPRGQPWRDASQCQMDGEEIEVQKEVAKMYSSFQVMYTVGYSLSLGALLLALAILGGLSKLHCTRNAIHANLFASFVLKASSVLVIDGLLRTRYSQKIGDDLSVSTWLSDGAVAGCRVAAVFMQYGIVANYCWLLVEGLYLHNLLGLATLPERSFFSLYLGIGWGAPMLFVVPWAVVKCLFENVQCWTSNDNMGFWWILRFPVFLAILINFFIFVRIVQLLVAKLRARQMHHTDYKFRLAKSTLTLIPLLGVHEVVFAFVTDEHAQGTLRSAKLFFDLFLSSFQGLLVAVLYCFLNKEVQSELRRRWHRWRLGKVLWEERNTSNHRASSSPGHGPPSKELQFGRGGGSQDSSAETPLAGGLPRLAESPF

Turning to `CC(C)C[C@H](NC(=O)[C@H](Cc1ccc(O)cc1)NC(=O)[C@H](CCCCN)NC(=O)[C@H](CO)NC(=O)[C@H](CC(C)C)NC(=O)[C@H](CC(=O)O)NC(=O)[C@H](CO)NC(=O)[C@@H](NC(=O)[C@H](Cc1ccccc1)NC(=O)[C@@H](NC(=O)CNC(=O)[C@H](CCC(N)=O)NC(=O)C(C)(C)NC(=O)[C@@H](N)Cc1c[nH]cn1)[C@@H](C)O)[C@@H](C)O)C(=O)N[C@@H](CCC(=O)O)C(=O)N[C@@H](CO)C(=O)N[C@@H](CCCCN)C(=O)N[C@@H](CCCNC(=N)N)C(=O)N[C@@H](C)C(=O)N[C@@H](CCCNC(=N)N)C(=O)N[C@@H](CCC(=O)O)C(=O)N[C@@H](Cc1ccccc1)C(=O)N[C@H](C(=O)N[C@@H](CCC(N)=O)C(=O)N[C@@H](Cc1c[nH]c2ccccc12)C(=O)N[C@@H](CC(C)C)C(=O)N[C@@H](CC(C)C)C(=O)N[C@@H](CCCCNC(=O)CC[C@H](NC(=O)CC[C@H](NC(=O)[C@H](CO)NC(=O)[C@H](CCC(=O)O)NC(=O)[C@H](CO)NC(=O)CC[C@H](NC(=O)CC[C@H](NC(=O)CCCCCCCCCCCCCCCCC(=O)O)C(=O)O)C(=O)O)C(=O)O)C(=O)O)C(=O)N[C@H](C(N)=O)[C@@H](C)O)C(C)C` [Example 52] (H-H[Aib]QGTFTSDLSKYLESKRAREFVQWLLK([γGlu-γGlu-Ser-Glu-Ser-γGlu-γGlu-C18 diacid])T-NH2; N-terminus assumed), the EC50 at human glucagon receptor was found to be 16 pM; at human GLP-1 receptor, 4 pM.

Turning to `CC(C)C[C@H](NC(=O)[C@H](Cc1ccc(O)cc1)NC(=O)[C@H](CCCCN)NC(=O)[C@H](CO)NC(=O)[C@H](CC(C)C)NC(=O)[C@H](CC(=O)O)NC(=O)[C@H](CO)NC(=O)[C@@H](NC(=O)[C@H](Cc1ccccc1)NC(=O)[C@@H](NC(=O)CNC(=O)[C@H](CCC(N)=O)NC(=O)C(C)(C)NC(=O)[C@@H](N)Cc1c[nH]cn1)[C@@H](C)O)[C@@H](C)O)C(=O)N[C@@H](CCC(=O)O)C(=O)N[C@@H](CO)C(=O)N[C@@H](CCCCN)C(=O)N[C@@H](CCCNC(=N)N)C(=O)N[C@@H](C)C(=O)N[C@@H](CCCNC(=N)N)C(=O)N[C@@H](CCC(=O)O)C(=O)N[C@@H](Cc1ccccc1)C(=O)N[C@H](C(=O)N[C@@H](CCC(N)=O)C(=O)N[C@@H](Cc1c[nH]c2ccccc12)C(=O)N[C@@H](CC(C)C)C(=O)N[C@@H](CC(C)C)C(=O)N[C@@H](CCCCNC(=O)CC[C@H](NC(=O)CC[C@H](NC(=O)[C@H](CO)NC(=O)[C@H](CCC(=O)O)NC(=O)[C@H](CO)NC(=O)CC[C@H](NC(=O)CC[C@H](NC(=O)CCCCCCCCCCCCCCCCC(=O)O)C(=O)O)C(=O)O)C(=O)O)C(=O)O)C(=O)N[C@H](C(N)=O)[C@@H](C)O)C(C)C` [Example 54, N^ε28-[(4S)-4-carboxy-4-[[(4S)-4-carboxy-4-[[(2S)-2-[[(2S)-4-carboxy-2-[[(2S)-2-[[(4S)-4-carboxy-4-[[(4S)-4-carboxy-4-(17-carboxyheptadecanoylamino)butanoyl]amino]butanoyl]amino]-3-hydroxypropanoyl]amino]butanoyl]amino]-3-hydroxypropanoyl]amino]butanoyl]amino]butanoyl]-[Aib2,Leu10,Glu15,Lys17,Arg20,Glu21,Leu27,Lys28]-Glucagon amide] (H-H[Aib]QGTFTSDLSKYLESKRAREFVQWLLK([γGlu-γGlu-Ser-Glu-Ser-γGlu-γGlu-C18 diacid])T-NH2; N-terminus assumed), the EC50 at human glucagon receptor came out at 12.7 pM; at human GLP-1 receptor it was 2.7 pM.

Turning to `CC(C)C[C@H](NC(=O)[C@H](Cc1ccc(O)cc1)NC(=O)[C@H](CCCNC(=N)N)NC(=O)[C@H](CO)NC(=O)[C@H](CC(C)C)NC(=O)[C@H](CC(=O)O)NC(=O)[C@H](CO)NC(=O)[C@@H](NC(=O)[C@H](Cc1ccccc1)NC(=O)[C@@H](NC(=O)CNC(=O)[C@H](CCC(N)=O)NC(=O)C1(NC(=O)[C@@H](N)Cc2c[nH]cn2)CCC1)[C@@H](C)O)[C@@H](C)O)C(=O)N[C@@H](CCC(=O)O)C(=O)N[C@@H](CO)C(=O)N[C@@H](CCCNC(=N)N)C(=O)N[C@@H](CCCNC(=N)N)C(=O)N[C@@H](C)C(=O)N[C@@H](CCCNC(=N)N)C(=O)N[C@@H](CCC(=O)O)C(=O)N[C@@H](Cc1ccccc1)C(=O)N[C@H](C(=O)N[C@@H](CCC(N)=O)C(=O)N[C@@H](Cc1c[nH]c2ccccc12)C(=O)N[C@@H](CC(C)C)C(=O)N[C@@H](CC(C)C)C(=O)N[C@@H](CCCCNC(=O)CC[C@H](NC(=O)CC[C@H](NC(=O)COCCOCCNC(=O)COCCOCCNC(=O)CC[C@H](NC(=O)CC[C@H](NC(=O)CCCCCCCCCCCCCCCCC(=O)O)C(=O)O)C(=O)O)C(=O)O)C(=O)O)C(=O)N[C@H](C(N)=O)[C@@H](C)O)C(C)C` [Example 59, N^ε28-[(4S)-4-carboxy-4-[[(4S)-4-carboxy-4-[[2-[2-[2-[[2-[2-[2-[[(4S)-4-carboxy-4-[[(4S)-4-carboxy-4-(17-carboxyheptadecanoylamino)butanoyl]amino]butanoyl]amino]ethoxy]ethoxy]acetyl]amino]ethoxy]ethoxy]acetyl]amino]butanoyl]amino]butanoyl]-[Acb2,Leu10,Arg12,Glu15,Arg20,Glu21,Leu27,Lys28]-Glucagon amide] (H-H[Ac4c]QGTFTSDLSRYLESRRAREFVQWLLK([γGlu-γGlu-AEEA-AEEA-γGlu-γGlu-C18 diacid])T-NH2; N-terminus assumed), the EC50 came to 17 pM on human glucagon receptor and 4 pM on human GLP-1 receptor.

For the molecule `CC(C)C[C@H](NC(=O)[C@H](Cc1ccc(O)cc1)NC(=O)[C@H](CCCCN)NC(=O)[C@H](CO)NC(=O)[C@H](CC(C)C)NC(=O)[C@H](CC(=O)O)NC(=O)[C@H](CO)NC(=O)[C@@H](NC(=O)[C@H](Cc1ccccc1)NC(=O)[C@@H](NC(=O)CNC(=O)[C@H](CCC(N)=O)NC(=O)C(C)(C)NC(=O)[C@@H](N)Cc1c[nH]cn1)[C@@H](C)O)[C@@H](C)O)C(=O)N[C@@H](CCC(=O)O)C(=O)N[C@@H](CO)C(=O)N[C@@H](CCCNC(=N)N)C(=O)N[C@@H](CCCNC(=N)N)C(=O)N[C@@H](C)C(=O)N[C@@H](CCCNC(=N)N)C(=O)N[C@@H](CCC(=O)O)C(=O)N[C@@H](Cc1ccccc1)C(=O)N[C@H](C(=O)N[C@@H](CCC(N)=O)C(=O)N[C@@H](Cc1c[nH]c2ccccc12)C(=O)N[C@@H](CC(C)C)C(=O)N[C@@H](CC(C)C)C(=O)N[C@@H](CCCCNC(=O)CC[C@H](NC(=O)CC[C@H](NC(=O)COCCOCCNC(=O)COCCOCCNC(=O)CC[C@H](NC(=O)CC[C@H](NC(=O)CCCCCCCCCCCCCCCCC(=O)O)C(=O)O)C(=O)O)C(=O)O)C(=O)O)C(=O)N[C@H](C(N)=O)[C@@H](C)O)C(C)C` [Example 60, N^ε28-[(4S)-4-carboxy-4-[[(4S)-4-carboxy-4-[[2-[2-[2-[[2-[2-[2-[[(4S)-4-carboxy-4-[[(4S)-4-carboxy-4-(17-carboxyheptadecanoylamino)butanoyl]amino]butanoyl]amino]ethoxy]ethoxy]acetyl]amino]ethoxy]ethoxy]acetyl]amino]butanoyl]amino]butanoyl]-[Aib2,Leu10,Glu15,Arg20,Glu21,Leu27,Lys28]-Glucagon amide] (H-H[Aib]QGTFTSDLSKYLESRRAREFVQWLLK([γGlu-γGlu-AEEA-AEEA-γGlu-γGlu-C18 diacid])T-NH2; N-terminus assumed), the EC50 was 54 pM at human glucagon receptor and 6 pM on human GLP-1 receptor.

For `CC(C)C[C@H](NC(=O)[C@H](Cc1ccc(O)cc1)NC(=O)[C@H](CCCNC(=N)N)NC(=O)[C@H](CO)NC(=O)[C@H](CC(C)C)NC(=O)[C@H](CC(=O)O)NC(=O)[C@H](CO)NC(=O)[C@@H](NC(=O)[C@H](Cc1ccccc1)NC(=O)[C@@H](NC(=O)CNC(=O)[C@H](CCC(N)=O)NC(=O)C(C)(C)NC(=O)[C@@H](N)Cc1c[nH]cn1)[C@@H](C)O)[C@@H](C)O)C(=O)N[C@@H](CC(=O)O)C(=O)N[C@@H](C)C(=O)N[C@@H](CCCNC(=N)N)C(=O)N[C@@H](CCCNC(=N)N)C(=O)N[C@@H](C)C(=O)N[C@@H](CCCNC(=N)N)C(=O)N[C@@H](CC(=O)O)C(=O)N[C@@H](Cc1ccccc1)C(=O)N[C@H](C(=O)N[C@@H](CCC(N)=O)C(=O)N[C@@H](Cc1c[nH]c2ccccc12)C(=O)N[C@@H](CC(C)C)C(=O)N[C@@H](CC(C)C)C(=O)N[C@@H](CCCCNC(=O)CC[C@H](NC(=O)CC[C@H](NC(=O)CC[C@H](NC(=O)CCCCCCCCCCCCCCCCC(=O)O)C(=O)O)C(=O)O)C(=O)O)C(=O)N[C@H](C(N)=O)[C@@H](C)O)C(C)C` [Example 62, N^ε28-[(4S)-4-carboxy-4-[[(4S)-4-carboxy-4-[[(4S)-4-carboxy-4-(17-carboxyheptadecanoylamino)butanoyl]amino]butanoyl]amino]butanoyl]-[Aib2,Leu10,Arg12,Ala16,Arg20,Leu27,Lys28]-Glucagon amide] (H-H[Aib]QGTFTSDLSRYLDARRARDFVQWLLK([γGlu-γGlu-γGlu-C18 diacid])T-NH2; N-terminus assumed), the EC50 was 10 pM at human glucagon receptor and 8 pM at human GLP-1 receptor.
